Measurements as given in the supplement of paper PMC6045584.
± gives the standard deviation of the averaged measurements.

Compound: O=C(O)C1(C(=O)O)CCC1.[NH2-].[NH2-].[Pt+2] [CARBOPLATIN]
Assay: surviving fraction relative to DMSO-only wells; higher = less growth inhibition
Conditions: 50 nM; exposure time: 5 days
Method in brief: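 Tumour cell lines in log phase were plated in 384-well plates at 250–500 cells per well, then, after 24 hours, exposed continuously for five days to inhibitors at 0.5, 1, 5, 10, 50, 100, 500 and 1000 nM. Viability came from CellTiter-Glo luminescence, and surviving fraction is that signal normalised to the median of DMSO-only wells. Plates were read after 10 minutes at room temperature, and each line, screened three times, was kept only when replicate Pearson r was >0.7 and median Z' was >0.3.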

| Test System | surviving fraction |
| --- | --- |
| JURKAT HAEMATOPOIETIC AND LYMPHOID TISSUE | 1 ± 0.039 |
| SJSA1 BONE | 0.869 ± 0.07 |
| YAMATO SYNOVIAL | 1.34 ± 0.029 |
| C33A CERVIX | 1.21 ± 0.066 |
| PCI30 HEADNECK | 1.12 ± 0.067 |
| SCC003 HEADNECK | 1.14 ± 0.027 |
| HUO3N1 BONE | 1.11 ± 0.05 |
| T47D BREAST | 1.05 ± 0.013 |
| NOS1 BONE | 1.22 ± 0.14 |
| HELA CERVIX | 1.05 ± 0.053 |
| NY BONE | 1.09 ± 0.019 |
| CASKI CERVIX | 1.05 ± 0.025 |
| BT549 BREAST | 1.05 ± 0.097 |
| COLO320DM LARGE INTESTINE | 1.2 ± 0.057 |
| MDAMB361 BREAST | 0.873 ± 0.062 |
| HOSMNG BONE | 1.22 ± 0.069 |
| A549 LUNG | 1.1 ± 0.011 |
| CAL51 BREAST | 1.03 ± 0.077 |
| OSHN BONE | 1.141 ± 0.0049 |
| MCF7 BREAST | 0.968 ± 0.05 |
| HT1080 SOFT TISSUE | 1.03 ± 0.023 |

| Test System | surviving fraction |
| --- | --- |
| MDAMB157 BREAST | 1.06 ± 0.12 |
| 143B BONE | 1.15 ± 0.15 |
| SIHA CERVIX | 1.16 ± 0.1 |
| MDAMB134 BREAST | 1.01 ± 0.11 |
| SG32 HEADNECK | 1.27 ± 0.12 |
| NCIH441 LUNG | 1.07 ± 0.2 |
| CCK81 LARGE INTESTINE | 0.77 ± 0.038 |
| SG31 HEADNECK | 1.16 ± 0.1 |
| OS25HAL BONE | 1.18 ± 0.025 |
| HCC1954 BREAST | 1.05 ± 0.15 |
| VP229 BREAST | 1.17 ± 0.21 |
| 22RV1 PROSTATE | 1.06 ± 0.093 |
| MDAMB231 BREAST | 1.01 ± 0.019 |
| RDES SOFT TISSUE | 1.09 ± 0.15 |
| LM7 BONE | 1.11 ± 0.064 |
| HMT3552 BREAST | 1.205 ± 0.0096 |
| SNU475 LIVER | 1.02 ± 0.075 |
| HCC38 BREAST | 0.944 ± 0.04 |
| HU09 BONE | 1.09 ± 0.046 |
| ASKA SYNOVIAL | 1.14 ± 0.073 |

Same assay, conditions: 100 nM; exposure time: 5 days

| Test System | surviving fraction |
| --- | --- |
| JURKAT HAEMATOPOIETIC AND LYMPHOID TISSUE | 1.07 ± 0.031 |
| SJSA1 BONE | 1.376 ± 0.0032 |
| YAMATO SYNOVIAL | 1.29 ± 0.11 |
| C33A CERVIX | 1.43 ± 0.13 |
| PCI30 HEADNECK | 1.08 ± 0.03 |
| SCC003 HEADNECK | 1.03 ± 0.035 |
| HUO3N1 BONE | 1.09 ± 0.034 |
| T47D BREAST | 1.05 ± 0.059 |
| NOS1 BONE | 1.23 ± 0.1 |
| HELA CERVIX | 1.14 ± 0.088 |
| NY BONE | 1.099 ± 0.0055 |
| CASKI CERVIX | 1.04 ± 0.021 |
| BT549 BREAST | 1.2 ± 0.072 |
| COLO320DM LARGE INTESTINE | 1.2 ± 0.15 |
| MDAMB361 BREAST | 0.754 ± 0.1 |
| HOSMNG BONE | 1.23 ± 0.015 |
| A549 LUNG | 1.06 ± 0.019 |
| CAL51 BREAST | 1.02 ± 0.022 |
| OSHN BONE | 1.13 ± 0.015 |
| MCF7 BREAST | 0.949 ± 0.068 |
| HT1080 SOFT TISSUE | 1.04 ± 0.044 |

| Test System | surviving fraction |
| --- | --- |
| MDAMB157 BREAST | 0.957 ± 0.056 |
| 143B BONE | 1.13 ± 0.053 |
| SIHA CERVIX | 1.21 ± 0.044 |
| MDAMB134 BREAST | 0.969 ± 0.24 |
| SG32 HEADNECK | 1.38 ± 0.35 |
| NCIH441 LUNG | 0.961 ± 0.091 |
| CCK81 LARGE INTESTINE | 0.782 ± 0.081 |
| SG31 HEADNECK | 1.06 ± 0.19 |
| OS25HAL BONE | 1.17 ± 0.053 |
| HCC1954 BREAST | 0.954 ± 0.013 |
| VP229 BREAST | 1.05 ± 0.025 |
| 22RV1 PROSTATE | 1.04 ± 0.12 |
| MDAMB231 BREAST | 1.02 ± 0.038 |
| RDES SOFT TISSUE | 1.23 ± 0.13 |
| LM7 BONE | 1.08 ± 0.094 |
| HMT3552 BREAST | 1.17 ± 0.059 |
| SNU475 LIVER | 1.05 ± 0.043 |
| HCC38 BREAST | 0.919 ± 0.13 |
| HU09 BONE | 1.11 ± 0.13 |
| ASKA SYNOVIAL | 1.27 ± 0.1 |
